Test results: ChEMBL document CHEMBL1201862, “PubChem BioAssay data set” (2004)
Activity calls are given as the source filed them.

Columns and labels:
[1] = molecular target: T1, Probable nicotinate-nucleotide adenylyltransferase (Staphylococcus aureus (strain N315), UniProt P65502); type: functional, Staphylococcus aureus subsp. aureus N315;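 on IC50 Mean: confirmatory dose-response retesting of NadD inhibitor hits first found in an ultra-high-throughput screen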
[2] = molecular target: T1, Probable nicotinate-nucleotide adenylyltransferase; type: functional, Staphylococcus aureus subsp. aureus N315; conditions: read-out: IC50_Mean
[3] = inhibitors of firefly luciferase expression or activity, dose response, H4 neuroglioma cells, luminescence (AID 1990); type: functional, cell-based
[4] = Luminescence Cell-Based Dose Response HTS to Identify Inhibitors of 5'UTR Stem-Loop Driven Prion Protein mRNA Translation in H4 Neuroglioblastoma Cells. [Related pubchem assays: 1827 (Project Summary), 1813 (Primary HTS)]; type: functional
[5] = inhibitors of SNCA 5'UTR-driven reporter translation, confirmation, H4 neuroglioma cells, luminescence (AID 1988); type: functional, cell-based
[6] = molecular target: T2, Short transient receptor potential channel 4 (Mus musculus, UniProt Q9QUQ5); test: mouse TRPC4 channel inhibitors, dose response, cell-based, HEK293 TRPC4/mu-opioid, Fluo-4 calcium (AID 434942); type: functional;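 further: potency of inhibitors blocking the TRPC4 calcium response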
T2 sequence (Q9QUQ5 whole entry): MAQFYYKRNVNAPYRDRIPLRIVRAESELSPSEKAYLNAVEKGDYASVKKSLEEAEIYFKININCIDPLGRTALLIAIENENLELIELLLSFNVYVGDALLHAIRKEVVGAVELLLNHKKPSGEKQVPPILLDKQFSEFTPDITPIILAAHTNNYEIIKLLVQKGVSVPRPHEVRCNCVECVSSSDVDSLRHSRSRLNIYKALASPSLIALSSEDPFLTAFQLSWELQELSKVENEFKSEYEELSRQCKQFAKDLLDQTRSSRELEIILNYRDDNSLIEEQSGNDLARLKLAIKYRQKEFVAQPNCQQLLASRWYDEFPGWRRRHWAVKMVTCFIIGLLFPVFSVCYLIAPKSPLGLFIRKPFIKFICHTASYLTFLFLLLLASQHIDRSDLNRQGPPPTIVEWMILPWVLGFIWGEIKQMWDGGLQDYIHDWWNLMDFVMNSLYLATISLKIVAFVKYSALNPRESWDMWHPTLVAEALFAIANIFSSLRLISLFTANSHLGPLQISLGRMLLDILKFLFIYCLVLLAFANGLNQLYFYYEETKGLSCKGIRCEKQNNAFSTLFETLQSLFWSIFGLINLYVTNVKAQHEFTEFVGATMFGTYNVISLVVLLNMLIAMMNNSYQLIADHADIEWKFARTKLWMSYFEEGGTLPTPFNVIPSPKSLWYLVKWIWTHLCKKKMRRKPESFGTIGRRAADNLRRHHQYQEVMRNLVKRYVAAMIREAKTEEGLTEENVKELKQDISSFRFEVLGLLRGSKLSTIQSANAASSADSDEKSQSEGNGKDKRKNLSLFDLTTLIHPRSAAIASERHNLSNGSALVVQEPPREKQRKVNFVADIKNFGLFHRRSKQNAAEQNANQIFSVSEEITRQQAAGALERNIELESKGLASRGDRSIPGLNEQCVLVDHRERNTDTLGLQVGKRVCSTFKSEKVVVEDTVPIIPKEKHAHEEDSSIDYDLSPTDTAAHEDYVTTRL

[7] = molecular target: T3, Insulin-degrading enzyme (Homo sapiens, UniProt P14735); test: activators of recombinant IDE enzyme, dose response, counter-screen for IDE activator project, biochemical, fluorescence polarization (AID 588681)
T3 sequence (P14735 whole entry): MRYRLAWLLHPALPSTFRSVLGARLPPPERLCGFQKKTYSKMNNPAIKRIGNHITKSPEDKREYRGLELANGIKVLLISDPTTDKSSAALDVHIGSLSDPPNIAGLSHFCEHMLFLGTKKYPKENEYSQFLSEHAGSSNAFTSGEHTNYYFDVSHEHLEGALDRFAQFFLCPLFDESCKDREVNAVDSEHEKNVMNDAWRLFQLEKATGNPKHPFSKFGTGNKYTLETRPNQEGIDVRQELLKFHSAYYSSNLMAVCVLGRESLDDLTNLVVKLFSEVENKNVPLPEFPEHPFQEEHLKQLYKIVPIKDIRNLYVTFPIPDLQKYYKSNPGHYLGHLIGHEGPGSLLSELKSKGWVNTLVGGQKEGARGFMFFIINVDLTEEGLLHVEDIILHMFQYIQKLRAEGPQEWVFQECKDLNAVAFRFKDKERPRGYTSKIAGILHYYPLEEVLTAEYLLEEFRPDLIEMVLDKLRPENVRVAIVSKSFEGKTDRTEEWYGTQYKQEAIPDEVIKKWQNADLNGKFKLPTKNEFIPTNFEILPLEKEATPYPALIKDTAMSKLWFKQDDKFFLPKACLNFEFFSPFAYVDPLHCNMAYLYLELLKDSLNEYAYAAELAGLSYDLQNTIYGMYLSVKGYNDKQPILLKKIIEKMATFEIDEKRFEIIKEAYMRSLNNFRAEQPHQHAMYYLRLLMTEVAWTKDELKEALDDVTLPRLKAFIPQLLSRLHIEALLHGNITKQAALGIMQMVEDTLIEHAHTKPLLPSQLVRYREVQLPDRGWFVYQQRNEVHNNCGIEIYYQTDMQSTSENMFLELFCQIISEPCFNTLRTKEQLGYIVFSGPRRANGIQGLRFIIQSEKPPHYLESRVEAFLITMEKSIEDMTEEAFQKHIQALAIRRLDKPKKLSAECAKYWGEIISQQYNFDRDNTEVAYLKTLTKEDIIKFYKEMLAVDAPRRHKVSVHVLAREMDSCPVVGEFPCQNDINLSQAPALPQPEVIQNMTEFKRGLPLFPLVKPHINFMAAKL

[8] = molecular target: T3, Insulin-degrading enzyme; test: activators of endogenous IDE in HEK cells, dose response, cell-based, fluorescence polarization (AID 588439); type: functional
[9] = test system: HEK293; test: HEK cell cytotoxicity by LDH release, dose response, cytotoxicity control for IDE activator project, fluorescence, HEK cells (AID 588440); type: functional, cell-based; conditions: Homo sapiens;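 further: cytotoxicity by LDH release measuring loss of membrane integrity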
[10] = test system: HEK293; test: optical interference in Abeta FP readout, dose response, artefact control for IDE activator project, biochemical, fluorescence polarization (AID 588442); type: functional, cell-based; conditions: Homo sapiens
[11] = inhibitors of intracellular T. cruzi replication, confirmation, NIH3T3 host cells, beta-gal luminescence (AID 2044); type: functional, cell-based;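 further: intracellular parasites grown in NIH/3T3 mouse fibroblasts as host cells; luminescent beta-galactosidase reporter signal from transgenic T. cruzi replicating inside host cells; inhibitors lower the luminescence signal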
[12] = cytotoxicity toward NIH3T3 fibroblasts, dose response, counter-screen, cell-based, ATP luminescence, mouse fibroblasts (AID 2010); type: functional;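 further: cells exposed to compound for about 90 hours before reading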
[13] = THP-1 cell cytotoxicity, dose response, cytotoxicity control for non-replicating M. tuberculosis project (AID 489025); type: functional
[14] = MDA-MB-231 cell growth inhibition, dose response, cytotoxicity control for RAD54 inhibitor project, CellTiter-Glo luminescence, cherry-pick (AID 651692); type: functional, cell-based
[15] = molecular target: T4, DNA repair and recombination protein RAD54-like (Homo sapiens, UniProt Q92698); test: inhibitors of human RAD54 branch migration, confirmation, biochemical, fluorescence, cherry-picked samples, dose series (AID 651657); type: functional
T4 sequence (Q92698 whole entry): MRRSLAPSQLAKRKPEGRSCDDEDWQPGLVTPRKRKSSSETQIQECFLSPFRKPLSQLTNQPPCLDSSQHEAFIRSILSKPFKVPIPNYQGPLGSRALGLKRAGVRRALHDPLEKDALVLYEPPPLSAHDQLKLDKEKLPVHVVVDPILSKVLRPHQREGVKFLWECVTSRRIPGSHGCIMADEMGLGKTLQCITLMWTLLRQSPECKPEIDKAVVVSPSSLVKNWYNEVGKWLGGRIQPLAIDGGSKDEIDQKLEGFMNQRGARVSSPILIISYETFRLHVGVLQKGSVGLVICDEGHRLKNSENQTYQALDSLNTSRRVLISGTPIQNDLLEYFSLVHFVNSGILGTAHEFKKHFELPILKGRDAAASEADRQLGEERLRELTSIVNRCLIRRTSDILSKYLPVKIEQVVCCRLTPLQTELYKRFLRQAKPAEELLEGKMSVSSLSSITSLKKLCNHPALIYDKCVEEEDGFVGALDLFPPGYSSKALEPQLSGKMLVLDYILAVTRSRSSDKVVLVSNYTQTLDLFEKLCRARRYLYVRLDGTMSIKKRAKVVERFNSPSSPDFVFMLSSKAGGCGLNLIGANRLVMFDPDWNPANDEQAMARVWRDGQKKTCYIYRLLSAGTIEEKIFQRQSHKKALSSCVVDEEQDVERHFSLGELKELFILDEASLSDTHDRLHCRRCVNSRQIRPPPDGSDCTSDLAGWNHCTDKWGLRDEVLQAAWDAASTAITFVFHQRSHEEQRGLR

[16] = molecular target: T5, Sentrin-specific protease 1 (Homo sapiens, UniProt Q9P0U3); test: potency of human SENP1 inhibitors, dose response, biochemical, kinetic FRET (AID 651697); type: functional; conditions: read-out: IC50_Mean
T5 sequence (Q9P0U3 whole entry): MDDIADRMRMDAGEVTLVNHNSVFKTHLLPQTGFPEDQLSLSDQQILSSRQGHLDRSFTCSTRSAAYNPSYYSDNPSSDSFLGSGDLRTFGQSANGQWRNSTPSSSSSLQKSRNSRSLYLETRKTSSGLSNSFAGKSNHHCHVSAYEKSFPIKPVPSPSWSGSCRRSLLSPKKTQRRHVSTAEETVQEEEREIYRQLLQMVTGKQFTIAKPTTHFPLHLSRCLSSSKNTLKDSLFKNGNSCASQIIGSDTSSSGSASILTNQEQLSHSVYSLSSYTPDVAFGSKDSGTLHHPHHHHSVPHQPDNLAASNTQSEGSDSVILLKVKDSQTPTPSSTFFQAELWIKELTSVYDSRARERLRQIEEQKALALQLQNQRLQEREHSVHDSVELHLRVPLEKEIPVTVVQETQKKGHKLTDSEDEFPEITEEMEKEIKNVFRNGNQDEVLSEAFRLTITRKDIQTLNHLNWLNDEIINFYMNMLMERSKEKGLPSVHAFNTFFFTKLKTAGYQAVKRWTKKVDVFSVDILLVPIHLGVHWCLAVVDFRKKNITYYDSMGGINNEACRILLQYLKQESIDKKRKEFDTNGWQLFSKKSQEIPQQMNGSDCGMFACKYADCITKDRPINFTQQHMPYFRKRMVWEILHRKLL

[17] = molecular target: T5, Sentrin-specific protease 1; test: Dose response confirmation of small molecule inhibitors of the catalytic domain of the SUMO protease, SENP1 in a FRET assay.; type: functional; conditions: read-out: IC50_Mean

T1 sequence (P65502 whole entry): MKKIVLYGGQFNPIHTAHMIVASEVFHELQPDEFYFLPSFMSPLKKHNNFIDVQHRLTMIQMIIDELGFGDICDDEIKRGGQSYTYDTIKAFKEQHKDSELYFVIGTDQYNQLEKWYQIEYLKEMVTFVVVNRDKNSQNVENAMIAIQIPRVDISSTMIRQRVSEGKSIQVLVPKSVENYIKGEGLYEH

## Cc1cc2[nH]c(=O)c(=O)[nH]c2cc1S(=O)(=O)N1CCN(c2cccc(C(F)(F)F)c2)CC1
[1]
  IC50: 9.57 µM (active)
[2]
  IC50: 29.2 µM (active)

## COc1ccc(/C=C2/SC(=S)N(CCCC(=O)Nc3ccccc3C(=O)O)C2=O)cc1
[3]
  EC50: 11 µM (active)
[4]
  EC50: 11.2 µM (active)
[5]
  EC50: 11.1 µM (active)
[6]
  EC50: 6.68 µM (active)
[7]
  EC50: > 54.6 µM (inactive)
[8]
  EC50: > 54.6 µM (inactive)
[9]
  IC50: > 89.1 µM (inactive)
[10]
  EC50: 58.7 µM (inactive)

## CCN(CC)CCSc1nnc2c3cc(C)ccc3n(Cc3ccccc3)c2n1
[11]
  EC50: 0.754 µM (active)
[12]
  EC50: > 60 µM (not active)
[13]
  CC50: 26.1 µM (active)
[14]
  AC50: 30.6 µM (active)
[15]
  AC50: 31.4 µM (active)

## C=CCOCCN1C(=O)C2C(c3ccccc3)C=CC(c3ccccc3)C2C1=O (configuration not stated)
[16]
  IC50: 6.05 µM (active)
[17]
  IC50: 4.3 µM (active)
